Where two headings read alike, the source gives them in different places.
What was measured:
Format in all cases: biochemical
[1] = molecular target: BTK (Homo sapiens (Human), UniProt Q06187); test: Btk kinase assay (HTRF); conditions: [ATP]=80 μM, BTK=3.4 nM
Outline: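 HTRF kinase read-out (665/615 nm ratio, excitation 330 nm) after EDTA quench and 1 h detection incubation. Reaction: 3.4 nM BTK, ATP 80 μM, peptide substrate 1 μM, compound, HEPES pH 7.0 buffer, 1 h; IC50 derived using uninhibited and enzyme-free controls.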

[2] = molecular target: LCK (Homo sapiens (Human), UniProt P06239); test: LCK kinase assay (HTRF); conditions: [ATP]=20 μM, LCK=0.2 nM
LCK, sequence (P06239 whole entry, species assumed): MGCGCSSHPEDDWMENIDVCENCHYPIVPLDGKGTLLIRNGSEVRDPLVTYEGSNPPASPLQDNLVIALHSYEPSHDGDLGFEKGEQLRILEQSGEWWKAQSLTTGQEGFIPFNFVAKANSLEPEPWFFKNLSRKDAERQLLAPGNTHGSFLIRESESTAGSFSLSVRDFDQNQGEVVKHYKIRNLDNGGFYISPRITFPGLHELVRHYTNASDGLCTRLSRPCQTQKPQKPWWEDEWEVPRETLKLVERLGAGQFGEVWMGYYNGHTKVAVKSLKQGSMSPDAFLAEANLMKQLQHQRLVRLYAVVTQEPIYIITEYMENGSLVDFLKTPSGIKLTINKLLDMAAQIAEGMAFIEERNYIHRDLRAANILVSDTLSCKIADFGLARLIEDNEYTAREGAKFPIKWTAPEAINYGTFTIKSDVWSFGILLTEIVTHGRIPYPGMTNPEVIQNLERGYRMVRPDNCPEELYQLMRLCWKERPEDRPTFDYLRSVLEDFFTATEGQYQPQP

[3] = molecular target: LYN (Homo sapiens (Human), UniProt P07948); test: LYN kinase assay (HTRF); conditions: [ATP]=20 μM, LYN=0.12 nM
LYN, sequence (P07948 whole entry, species assumed): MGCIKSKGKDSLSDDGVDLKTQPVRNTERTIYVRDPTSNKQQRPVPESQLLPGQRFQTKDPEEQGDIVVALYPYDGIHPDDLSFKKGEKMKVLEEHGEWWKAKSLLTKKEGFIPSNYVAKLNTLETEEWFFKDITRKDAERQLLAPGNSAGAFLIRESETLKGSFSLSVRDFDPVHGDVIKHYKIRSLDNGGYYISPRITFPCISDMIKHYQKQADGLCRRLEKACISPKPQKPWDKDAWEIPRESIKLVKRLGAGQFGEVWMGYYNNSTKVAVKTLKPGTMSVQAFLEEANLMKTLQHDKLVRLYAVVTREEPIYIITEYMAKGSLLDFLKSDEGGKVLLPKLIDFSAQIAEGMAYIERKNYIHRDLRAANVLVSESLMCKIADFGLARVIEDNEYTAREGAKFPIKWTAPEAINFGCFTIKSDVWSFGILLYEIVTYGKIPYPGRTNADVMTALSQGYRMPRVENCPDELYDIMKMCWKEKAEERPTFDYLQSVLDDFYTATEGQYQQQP

BTK, sequence (Q06187 whole entry, species assumed): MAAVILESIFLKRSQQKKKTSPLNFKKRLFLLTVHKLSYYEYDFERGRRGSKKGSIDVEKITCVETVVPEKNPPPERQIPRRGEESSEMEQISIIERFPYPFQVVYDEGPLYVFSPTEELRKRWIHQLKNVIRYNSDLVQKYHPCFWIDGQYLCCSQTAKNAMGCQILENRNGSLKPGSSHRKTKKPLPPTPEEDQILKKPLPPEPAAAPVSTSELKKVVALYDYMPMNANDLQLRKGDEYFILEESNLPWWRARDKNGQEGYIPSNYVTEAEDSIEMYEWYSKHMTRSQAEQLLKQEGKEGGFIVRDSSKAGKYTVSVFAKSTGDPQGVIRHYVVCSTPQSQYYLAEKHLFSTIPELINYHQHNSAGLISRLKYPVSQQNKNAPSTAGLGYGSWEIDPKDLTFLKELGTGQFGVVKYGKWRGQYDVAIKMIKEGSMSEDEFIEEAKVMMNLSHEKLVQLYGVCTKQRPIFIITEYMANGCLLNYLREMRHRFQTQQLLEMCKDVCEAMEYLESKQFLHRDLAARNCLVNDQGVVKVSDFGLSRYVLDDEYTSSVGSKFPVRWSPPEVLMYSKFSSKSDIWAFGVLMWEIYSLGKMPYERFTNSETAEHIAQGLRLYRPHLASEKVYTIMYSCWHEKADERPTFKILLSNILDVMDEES

| Compound | IC50 ([1]; Table 2, read-out: BTK IC50) [nM] | IC50 [2] [nM] | IC50 [3] [nM] | IC50 ([1]; read-out: BTK Inhibition) [nM] |
| --- | --- | --- | --- | --- |
| C=CC(=O)N1CC[C@@H](n2c(=O)n(-c3ccc(Oc4ccccc4)cc3)c3cnccc32)C1 [Example 1, (R)-1-(1-acryloylpyrrolidin-3-yl)-3-(4-phenoxyphenyl)-1H-imidazo[4,5-c]pyridin-2(3H)-one] | 10 to 100 | ≥ 10000 | ≥ 10000 |  |
| C=CC(=O)Nc1cccc(-n2c(=O)n(-c3ccc(C(=O)Nc4cccc(C(F)(F)F)c4)cc3)c3cnccc32)c1 [Example 251, 4-(1-(3-acrylamidophenyl)-2-oxo-1H-imidazo[4,5-c]pyridin-3(2H)-yl)-N-(3-(trifluoromethyl)phenyl)benzamide] |  |  |  | 1000 to 10000 |
| C=CC(=O)Nc1cccc(-n2c(=O)n(-c3ccc(C(=O)N4CCOCC4)cc3)c3cnccc32)c1 [Example 253, N-(3-(3-(4-(morpholine-4-carbonyl)phenyl)-2-oxo-2,3-dihydro-1H-imidazo[4,5-c]pyridin-1-yl)phenyl)acrylamide] |  |  |  | 1000 to 10000 |
| C=CC(=O)Nc1cccc(-n2c(=O)n(-c3ccc(C(=O)Nc4ccccc4)cc3)c3cnccc32)c1 [Example 254, 4-(1-(3-acrylamidophenyl)-2-oxo-1H-imidazo[4,5-c]pyridin-3(2H)-yl)-N-phenylbenzamide] |  |  |  | 1000 to 10000 |
| C=CC(=O)Nc1cccc(-n2c(=O)n(-c3ccc(C(=O)Nc4cccc(C)c4)cc3)c3cnccc32)c1 [Example 255, 4-(1-(3-acrylamidophenyl)-2-oxo-1H-imidazo[4,5-c]pyridin-3(2H)-yl)-N-(m-tolyl)benzamide] |  |  |  | 1000 to 10000 |
| C=CC(=O)N1CC[C@@H](n2c(=O)n(-c3ccc(C(=O)NCc4cccc(OC)c4)cc3)c3cnccc32)C1 [Example 256, (R)-4-(1-(1-acryloylpyrrolidin-3-yl)-2-oxo-1H-imidazo[4,5-c]pyridin-3(2H)-yl)-N-(3-methoxybenzyl)benzamide] |  |  |  | 1000 to 10000 |
| C=CC(=O)Nc1cccc(-n2c(=O)n(-c3ccc(NC(=O)c4ccccc4)cc3)c3cnccc32)c1 [Example 261, N-(4-(1-(3-acrylamidophenyl)-2-oxo-1H-imidazo[4,5-c]pyridin-3(2H)-yl)phenyl)benzamide] |  |  |  | 100 to 1000 |
| C=CC(=O)Nc1cccc(-n2c(=O)n(-c3ccc(NC(=O)c4ccccc4C(F)(F)F)cc3)c3cnccc32)c1 [Example 262, N-(4-(1-(3-acrylamidophenyl)-2-oxo-1,2-dihydro-3H-imidazo[4,5-c]pyridin-3-yl)phenyl)-2-(trifluoromethyl)benzamide] |  |  |  | 100 to 1000 |
| C=CC(=O)Nc1cccc(-n2c(=O)n(-c3ccc(NC(=O)c4ccc(C(F)(F)F)cc4)cc3)c3cnccc32)c1 [Example 263, N-(4-(1-(3-acrylamidophenyl)-2-oxo-1,2-dihydro-3H-imidazo[4,5-c]pyridin-3-yl)phenyl)-4-(trifluoromethyl)benzamide] |  |  |  | 100 to 1000 |
| C=CC(=O)Nc1cccc(-n2c(=O)n(-c3ccc(NC(=O)c4ccc(OC)cc4)cc3)c3cnccc32)c1 [Example 264, N-(4-(1-(3-acrylamidophenyl)-2-oxo-1H-imidazo[4,5-c]pyridin-3(2H)-yl)phenyl)-4-methoxybenzamidee] |  |  |  | 100 to 1000 |
| C=CC(=O)Nc1cccc(-n2c(=O)n(-c3ccc(NC(=O)c4cccc(F)c4)cc3)c3cnccc32)c1 [Example 265, N-(4-(1-(3-acrylamidophenyl)-2-oxo-1H-imidazo[4,5-c]pyridin-3(2H)-yl)phenyl)-3-fluorobenzamide] |  |  |  | 100 to 1000 |
| C=CC(=O)Nc1cccc(-n2c(=O)n(-c3ccc(NC(=O)c4cccc(OC)c4)cc3)c3cnccc32)c1 [Example 266, N-(4-(1-(3-acrylamidophenyl)-2-oxo-1H-imidazo[4,5-c]pyridin-3(2H)-yl)phenyl)-3-methoxybenzamide] |  |  |  | 100 to 1000 |
| C=CC(=O)Nc1cccc(-n2c(=O)n(-c3ccc(NC(=O)c4cccc(C)c4)cc3)c3cnccc32)c1 [Example 267, N-(4-(1-(3-acrylamidophenyl)-2-oxo-1H-imidazo[4,5-c]pyridin-3(2H)-yl)phenyl)-3-methylbenzamide] |  |  |  | ≥ 10000 |
| C=CC(=O)N1CC[C@@H](n2c(=O)n(-c3ccc(NC(=O)c4ccc(OC)c(C(F)(F)F)c4)cc3)c3cnccc32)C1 [Example 268, (R)-N-(4-(1-(1-acryloylpyrrolidin-3-yl)-2-oxo-1H-imidazo[4,5-c]pyridin-3(2H)-yl)phenyl)-4-methoxy-3-(trifluoromethyl)benzamide] |  |  |  | 100 to 1000 |
| C=CC(=O)N1CC[C@H](n2c(=O)n(-c3ccc(NC(=O)c4ccc(C)c(C(F)(F)F)c4)cc3)c3cnccc32)C1 [Example 269, (S)-N-(4-(1-(1-acryloylpyrrolidin-3-yl)-2-oxo-1H-imidazo[4,5-c]pyridin-3(2H)-yl)phenyl)-4-methyl-3-(trifluoromethyl)benzamide] |  |  |  | 100 to 1000 |
| C=CC(=O)Nc1cccc(-n2c(=O)n(-c3ccc(-c4cccc(C)c4)cc3)c3cnccc32)c1 [Example 270, N-(3-(3-(3′-methyl-[1,1′-biphenyl]-4-yl)-2-oxo-2,3-dihydro-1H-imidazo[4,5-c]pyridin-1-yl)phenyl)acrylamide] |  |  |  | ≥ 10000 |
| C=CC(=O)Nc1cccc(-n2c(=O)n(-c3cccc(-c4ccc(C)cc4)c3)c3cnccc32)c1 [Example 272, N-(3-(3-(4′-methyl-[1,1′-biphenyl]-3-yl)-2-oxo-2,3-dihydro-1H-imidazo [4,5-c]pyridin-1-yl)phenyl)acrylamide] |  |  |  | 100 to 1000 |
| C=CC(=O)N1CC[C@@H](n2c(=O)n(-c3cccc(-c4ccccc4C)c3)c3cnccc32)C1 [Example 273, (R)-1-(1-acryloylpyrrolidin-3-yl)-3-(2′-methyl-[1,1′-biphenyl]-3-yl)-1H-imidazo[4,5-c]pyridin-2(3H)-one] |  |  |  | 100 to 1000 |
| C=CC(=O)N1CC[C@@H](n2c(=O)n(-c3ccc(-c4ccc(OC)cc4F)cc3)c3cnccc32)C1 [Example 274] |  |  |  | 100 to 1000 |
| C=CC(=O)N1CC[C@@H](n2c(=O)n(-c3ccc(-c4ccc(Cl)cc4Cl)cc3)c3cnccc32)C1 [Example 275] |  |  |  | ≥ 10000 |
| C=CC(=O)Nc1cccc(-n2c(=O)n(-c3ccc(-c4ccc(C)cc4)cc3)c3cnccc32)c1 [Example 276, N-(3-(3-(4′-methyl-[1,1′-biphenyl]-4-yl)-2-oxo-2,3-dihydro-1H-imidazo[4,5-c]pyridin-1-yl)phenyl)acrylamide] |  |  |  | 1000 to 10000 |
| C=CC(=O)N1CC[C@@H](n2c(=O)n(-c3cccc(-c4ccccc4)c3)c3cnccc32)C1 [Example 277, (R)-3-([1,1′-biphenyl]-3-yl)-1-(1-acryloylpyrrolidin-3-yl)-1H-imidazo[4,5-c]pyridin-2(3H)-one] |  |  |  | 100 to 1000 |

Results, then the compound that gave them:

| IC50 ([1]; Table 2, read-out: BTK IC50) [nM] | IC50 [2] [nM] | IC50 [3] [nM] | IC50 ([1]; read-out: BTK Inhibition) [nM] | Compound |
| --- | --- | --- | --- | --- |
| ≤ 10 | ≥ 10000 | ≥ 10000 | ≤ 10 | C=CC(=O)N1CC[C@@H](n2c(=O)n(-c3ccc(Oc4cccc(OC)c4)cc3)c3cnccc32)C1 [Example 2, (R)-1-(1-acryloylpyrrolidin-3-yl)-3-(4-(3-methoxyphenoxy)phenyl)-1H-imidazo[4,5-c]pyridin-2(3H)-one] |
| ≤ 10 | ≥ 10000 | 1000 to 10000 | ≤ 10 | C=CC(=O)N1CCC[C@H](n2c(=O)n(-c3ccc(Oc4cccc(OC)c4Cl)cc3)c3cnccc32)C1 [Example 8, (S)-1-(1-acryloylpiperidin-3-yl)-3-(4-(2-chloro-3-methoxyphenoxy)phenyl)-1H-imidazo[4,5-c]pyridin-2(3H)-one] |
| ≤ 10 | ≥ 10000 | 1000 to 10000 | ≤ 10 | C=CC(=O)N1CC[C@@H](n2c(=O)n(-c3ccc(Sc4ccccc4)cc3)c3cnccc32)C1 [Example 31, (R)-1-(1-acryloylpyrrolidin-3-yl)-3-(4-(phenylthio)phenyl)-1H-imidazo[4,5-c]pyridin-2(3H)-one] |
| ≤ 10 | ≥ 10000 | ≥ 10000 | ≤ 10 | C=CC(=O)N1CC[C@@H](n2c(=O)n(-c3ccc(Oc4cccc(F)c4F)cc3)c3cnccc32)C1 [Example 60, (R)-1-(1-acryloylpyrrolidin-3-yl)-3-(4-(2,3-difluorophenoxy)phenyl)-1H-imidazo[4,5-c]pyridin-2(3H)-one] |
|  |  |  | 100 to 1000 | C=CC(=O)Nc1cccc(-n2c(=O)n(-c3ccc(C(=O)NCc4cccc(OC)c4)cc3)c3cnccc32)c1 [Example 252, 4-(1-(3-acrylamidophenyl)-2-oxo-1H-imidazo[4,5-c]pyridin-3(2H)-yl)-N-(3-methoxybenzyl)benzamide] |
|  |  |  | 10 to 100 | C=CC(=O)Nc1cccc(-n2c(=O)n(-c3ccc(NC(=O)c4ccccc4OC)cc3)c3cnccc32)c1 [Example 258, N-(4-(1-(3-acrylamidophenyl)-2-oxo-1H-imidazo[4,5-c]pyridin-3(2H)-yl)phenyl)-2-methoxybenzamide] |
|  |  |  | 100 to 1000 | C=CC(=O)Nc1cccc(-n2c(=O)n(-c3ccc(NC(=O)c4cccc(Cl)c4)cc3)c3cnccc32)c1 [Example 259, N-(4-(1-(3-acrylamidophenyl)-2-oxo-1H-imidazo[4,5-c]pyridin-3(2H)-yl)phenyl)-3-chlorobenzamide] |
|  |  |  | 10 to 100 | C=CC(=O)Nc1cccc(-n2c(=O)n(-c3cccc(NC(=O)c4ccc(C(C)(C)C)cc4)c3)c3cnccc32)c1 [Example 260, N-(3-(1-(3-acrylamidophenyl)-2-oxo-1H-imidazo[4,5-c]pyridin-3(2H)-yl)phenyl)-4-(tert-butyl)benzamide] |
|  |  |  | 10 to 100 | C=CC(=O)Nc1cccc(-n2c(=O)n(-c3ccc(-c4ccccc4)cc3)c3cnccc32)c1 [Example 271, N-(3-(3-([1,1′-biphenyl]-4-yl)-2-oxo-2,3-dihydro-1H-imidazo[4,5-c]pyridin-1-yl)phenyl)acrylamide] |
|  |  |  | 10 to 100 | C=CC(=O)Nc1cccc(-n2c(=O)n(-c3ccc(C4CC4)cc3)c3cnccc32)c1 [Example 278, N-(3-(3-(4-cyclopropylphenyl)-2-oxo-2,3-dihydro-1H-imidazo[4,5-c]pyridin-1-yl)phenyl)acrylamide] |

From patent US10358446B2, “Bruton's tyrosine kinase inhibitors” (Zibo Biopolar Changsheng Pharmaceutical Co. Ltd., priority 2015, dated 2019)
